Reference: PMC4861708 (Frontiers in Cell and Developmental Biology, 2016)
Converted amounts (≈) assume the structure as drawn. Where a SMILES comes first, the peptide text is derived from it. [ ]: non-standard residue; d: D form. The star is where a group is joined. Orn(α-tetramethylguanidino) = CN(C)C(=N[C@@H](CCCN)C(=O)*)N(C)C; Orn = NCCC[C@H](N)C(=O)O

Columns and labels:
HeLa cells = test system: HeLa cells; parameters: method as in Berthold et al., 2013; Bluhm et al., 2015; settings: ref Berthold et al., 2013, Bluhm et al., 2015; cited from earlier work
[1] = parameters: method as in unpublished data; settings: four intraperitoneal injections of 80 mg/kg per day; ref unpublished data; cited from earlier work
[2] = test system: P. aeruginosa DSM 3227 (ATCC 19429); format: cell-based, Pseudomonas aeruginosa; settings: DSM 3227, 24 h
How it was run: (§1)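 Broth microdilution MIC: P. aeruginosa strains in 50 or 100% MHB, K. pneumoniae in TSB; peptides 512–4 μg/mL final. Inoculum from 1.5 × 10^7 cells/mL suspension, also high density 5 × 10^8 cells/mL; 37°C, 24 h, growth read at OD595.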

in vitro = format: cell-based; settings: human
Experimental: Human embryonic kidney (HEK293) and HeLa cells were cultured in Dulbecco's modified Eagle's/Ham's F-12 medium [DMEM/F-12 (1:1)] supplemented with FBS (10% v/v), penicillin, and streptomycin (1000 units each). Primary rat cardiomyocytes (Innoprot, Elexalde Derio, Spain) were grown in medium supplemented with FBS (20% v/v), horse serum (5% v/v), L-glutamine (2 mmol/L), sodium pyruvate (2 mmol/L), MEM non-essential amino acids (Gibco, 0.1 mmol/L), penicillin, and streptomycin (1000 units each). Surfaces for cardiomyocyte growth were coated with attachment factor first. Cells (20,000/well) were seeded into a 96-well plate (PS, sterile, flat bottom), incubated for 24 h (37°C, 5% CO2), and washed twice with PBS (100 μl/well) prior to adding colorless medium (88 μL) and peptide solution (12 μL; 5, 2.5, 1.25, […], and 0.625 g/L in PBS). Positive controls were triton X-100 (1%, v/v) and melittin (60 mg/L) as lytic peptide, whereas PBS (12%, v/v) served as negative control. After an incubation period of 24 h, supernatant (25 μL) was mixed with lactate dehydrogenase (LDH) substrate (175 μL; 0.57 mmol/L sodium pyruvate, 0.24 mmol/L NADH disodium salt, 32 mmol/L potassium dihydrogen phosphate, 66 mmol/L dipotassium phosphate) in 96-well plates (PS, sterile, flat bottom). Absorbance was recorded at 340 nm every 3 min for 30 min on the Paradigm microplate reader. Due to the total release of LDH upon triton X-100 treatment, the control contained high LDH concentrations resulting in a fast substrate turnover that was only linear for the first 6 min.
The MTT cell viability assay relied on the same cell culture. Remaining medium was replaced by a mixture of fresh colorless medium (100 μL) and MTT (10 μL; 5 g/L in PBS) and incubated for 4 h (37°C, 5% CO2). A solution of sodium dodecyl sulfate (100 μL; 10%, w/v) dissolved in hydrochloric acid (10 mmol/L) was added, incubated (16 h), and the absorbance recorded at 590 nm relative to the reference at 650 nm (Paradigm microplate reader). The relative cell viability was calculated by [(ODPeptide − ODTriton)/(ODPBS − ODTriton)] × 100% and half-maximal inhibitory concentrations (IC50) with an Excel-template from cell biology protocols (www.sciencegateway.org/ protocols/cellbio/drug/hcic50.htm). For statistical analysis an unpaired t-test was applied using GraphPad Prism 5.0.

P. aeruginosa DSM 9644 = format: cell-based, Pseudomonas aeruginosa; settings: DSM 9644, 24 h
How it was run: as §1

**Q.** Which “IC50 on cell viability” value (HeLa cells) does the source give for CC[C@H](C)[C@H](NC(=O)[C@H](Cc1ccc(O)cc1)NC(=O)[C@@H](NC(=O)[C@@H]1CCCN1C(=O)[C@H](CCCNC(=N)N)NC(=O)[C@H](CC(N)=O)NC(=O)[C@H](CC(N)=O)NC(=O)[C@H](CCCN)N=C(N(C)C)N(C)C)C(C)C)C(=O)N1CCC[C@H]1C(=O)N[C@@H](CCCNC(=N)N)C(=O)N1CCC[C@H]1C(=O)N[C@@H](CCCNC(=N)N)C(=O)N1CCC[C@H]1C(=O)N1CCC[C@H]1C(=O)N[C@@H](Cc1c[nH]cn1)C(=O)N1CCC[C@H]1C(=O)N[C@@H](CCCNC(=N)N)C(=O)N[C@@H](CC(C)C)C(=O)O [Api137, gu-ONNRPVYIPRPRPPHPRL-OH, reference compound] ({Orn(α-tetramethylguanidino)}-NNRPVYIPRPRPPHPRL-OH) here?
**A.** >600 µg/mL

**Q.** What about the “in vivo tolerance, acute toxic effects” value [1] of the same molecule?
**A.** no acute toxic effects

**Q.** What about the “MIC P. aeruginosa DSM 3227” value [2] of the same molecule?
**A.** >256 µg/mL

**Q.** Which viability at 24 h, 0.6 g/L (in vitro) does the source give for CC[C@H](C)[C@H](NC(=O)[C@H](CCCN)N=C(N(C)C)N(C)C)C(=O)N[C@@H](CCCN)C(=O)N[C@H](C(=O)N[C@@H](CCCN)C(=O)N[C@@H](CCCNC(=N)N)C(=O)N1CCC[C@H]1C(=O)N[C@H](C(=O)N[C@@H](Cc1ccc(O)cc1)C(=O)N[C@@H](CCCN)C(=O)N1CCC[C@H]1C(=O)N[C@@H](CCCNC(=N)N)C(=O)N1CCC[C@H]1C(=O)N[C@@H](CCCNC(=N)N)C(=O)N1CCC[C@H]1C(=O)N1CCC[C@H]1C(=O)N[C@@H](Cc1c[nH]cn1)C(=O)N1CCC[C@H]1C(=O)N[C@@H](CCCNC(=N)N)C(=O)N[C@@H](CC(C)C)C(=O)O)C(C)C)[C@@H](C)CC [Api795, gu-O(IO)2RPVYOPRPRPPHPRL-OH] ({Orn(α-tetramethylguanidino)}-I[Orn]I[Orn]RPVY[Orn]PRPRPPHPRL-OH) here?
**A.** 78 ± 14%

**Q.** With CC(C)C[C@H](NC(=O)[C@H](CCCNC(=N)N)NC(=O)[C@@H]1CCCN1C(=O)[C@H](Cc1c[nH]cn1)NC(=O)[C@@H]1CCCN1C(=O)[C@@H]1CCCN1C(=O)[C@H](CCCNC(=N)N)NC(=O)[C@@H]1CCCN1C(=O)[C@H](CCCNC(=N)N)NC(=O)[C@@H]1CCCN1C(=O)[C@H](CCCN)NC(=O)[C@H](Cc1ccc(O)cc1)NC(=O)[C@@H](NC(=O)[C@@H]1CCCN1C(=O)[C@H](CCCNC(=N)N)NC(=O)[C@H](CCCN)NC(=O)[C@H](Cc1c[nH]c2ccccc12)NC(=O)[C@H](CCCN)NC(=O)[C@H](Cc1c[nH]c2ccccc12)NC(=O)[C@H](CCCN)NC(=O)[C@H](Cc1c[nH]c2ccccc12)NC(=O)[C@H](CCCN)N=C(N(C)C)N(C)C)C(C)C)C(=O)O [Api794, gu-O(WO)3RPVYOPRPRPPHPRL-OH] ({Orn(α-tetramethylguanidino)}-W[Orn]W[Orn]W[Orn]RPVY[Orn]PRPRPPHPRL-OH) as the molecule, how does the “MIC P. aeruginosa DSM 9644” value (P. aeruginosa DSM 9644) read?
**A.** 16 µg/mL (≈ 5.4 µM)
